Test results: PMC6278399, “Synthesis and Anticancer Activity Evaluation of Hydrolyzed Derivatives of Panaxnotoginseng Saponins” (Molecules, 2018)

Key:
[1] = MTT cytotoxicity assay, IOSE144 normal cells; assay type: cell-based, human; details: human
From the text: (§1) In the study, five cancer cell lines (human colon cancer cells (HT-29), gastric cancer cells (BGC-823), cervical cancer cells (Hela), human breast cancer cells (MCF-7), and human lung cancer cells A549)), and two normal cell lines (human gastric epithelial cells (GES-1) and human ovarian epithelial cells (IOSE144)) were used for the evaluation of biological activity. IOSE144 cells were donated by Professor Piao Huri of Yanbian University, all other cells were purchased from the American Type Culture Collection (ATCC, Manassas, VA, USA). Cells were cultured in Dulbecco’s Modified Eagle’s Medium (DMEM), supplemented with 10% heat-inactivated fetal bovine serum (FBS), 1% 100 μg/mL penicillin and 100 μg/mL streptomycin in a humidified atmosphere containing 5% CO2 at 37 °C. Cell viability was measured using the MTT assay. Cells were seeded in 96 well microtiter plates in a volume of 100 μL medium. All compounds tested were dissolved and further diluted in DMSO. After overnight incubation, cells were treated with different test concentrations or carrier solvents alone in a final volume of 100 μL with five replicates each. […] Cells were treated with compound (80, 40, 20, 10, 5 μM) for 48 h. Then, 10 μL of MTT (5 mg/mL) was added to each well and the cells were incubated at 37 °C in the dark for 4 h. Supernatants were removed and formazan crystals were dissolved in DMSO (100 μL/well). The solution was agitated for 10 min, and the absorbance was measured at 490 nm using microplate reader (imark, BIO-RAD, Hercules, CA, USA) to calculate the 50% inhibitory concentration (IC50). Ginsenoside-Rg3, panaxadiol sapogenin (PD), AD-2 (25-OH-PPD) and AD-1 (25-OCH3-PPD) were used as standard reference compounds.

[2] = system: human breast cancer cells (MCF-7); test: MTT cytotoxicity assay, MCF-7; assay type: cell-based; details: Homo sapiens, MCF7; MCF-7, MTT, 48 h
From the text: as §1

[3] = MTT cytotoxicity assay, GES-1 normal cells; assay type: cell-based, human; details: human
From the text: as §1

[4] = system: gastric cancer cells (BGC-823); test: MTT cytotoxicity assay, BGC-823; assay type: cell-based, human; details: Homo sapiens; BGC-823, MTT, 48 h
From the text: as §1

[5] = system: cervical cancer cells (Hela); test: MTT cytotoxicity assay, Hela; assay type: cell-based, human; details: Homo sapiens, 48 h
From the text: as §1

[6] = system: human lung cancer cells A549; test: MTT cytotoxicity assay, A549; assay type: cell-based; details: Homo sapiens, 48 h
From the text: as §1

[7] = system: human colon cancer cells (HT-29); test: MTT cytotoxicity assay, HT-29; assay type: cell-based; details: Homo sapiens; HT-29, MTT, 48 h
From the text: as §1

[8] = system: five cancer cell lines (HT-29, BGC-823, Hela, MCF-7, A549); test: Cytotoxic activity on five cancer cell lines (overall statement); assay type: cell-based, human; details: MTT
From the text: as §1

[9] = IOSE144 ovarian epithelial cells (normal cell line), IOSE144 normal cells, MTT, 48 h, read-out: IC50
[10] = GES-1 gastric epithelial cells (normal cell line), GES-1 normal cells, MTT, 48 h, read-out: IC50

SMILES	IC50 at 48 h [1, 9] [µM]	IC50 [2] [µM]	IC50 at 48 h [3, 10] [µM]	IC50 [4] [µM]	IC50 [5] [µM]	IC50 [6] [µM]	IC50 [7] [µM]	IC50 at 48 h [1] [µM]	anticancer activity (in words) [8]	IC50 at 48 h [3] [µM]	melting point [°C]
CC(=O)Oc1ccccc1C(=O)O [Acetyl-salicylic acid, reference compound]	> 100	57.1 ± 1.7	> 100	87.67 ± 0.78	> 100	90.5 ± 2.13	70.26 ± 0.38	–	–	–	–
CC(C)(CCCC(C)(O)C1CCC2(C)C1C(OC(=O)c1ccccc1O)CC1C3(C)CCC(OC(=O)c4ccccc4O)C(C)(C)C3CCC12C)OC(=O)c1ccccc1O [Compound 1a, 20(R)-Dammarane-20-hydroxy-3β,12β,25-tri-yl-2′-hydroxybenzoate]	–	20.31 ± 0.11	–	11.8 ± 0.21	3.23 ± 0.34	15.69 ± 0.1	9.23 ± 0.08	> 100	strong anticancer activity	> 100	192 to 194
CC(=O)Oc1ccccc1C(=O)OC1CCC2(C)C(CCC3(C)C2CC(OC(=O)c2ccccc2O)C2C(C4(C)CCCC(C)(C)O4)CCC23C)C1(C)C [Compound 1b, 20(R)-Pananxadiol-3β-yl-2′-acetylbenzoate-12β-yl-2′-hydroxybenzoate]	–	7.65 ± 0.29	–	9.65 ± 0.61	11.3 ± 0.14	13.26 ± 0.11	12.2 ± 0.28	> 100	strong anticancer activity	> 100	198 to 200
COC(C)(C)CCCC(C)(O)C1CCC2(C)C1C(OC(=O)c1ccccc1O)CC1C3(C)CCC(OC(=O)c4ccccc4O)C(C)(C)C3CCC12C [Compound 2a, 20(R)-25-Methoxydammarane-20-hydroxy-3β,12β-di-yl-2′-hydroxybenzoate]	–	25.7 ± 0.43	–	40.9 ± 0.45	16.5 ± 0.23	26.45 ± 0.14	32.58 ± 0.23	> 100	–	> 100	200 to 202
COC(C)(C)CCCC(C)(O)C1CCC2(C)C1C(O)CC1C3(C)CCC(OC(=O)c4ccccc4O)C(C)(C)C3CCC12C [Compound 4a, 20(R)-25-Methoxydammarane-12β,20-diol-3β-yl-2′-hydroxybenzoate]	–	11.1 ± 0.35	–	13.2 ± 0.18	19.26 ± 0.14	35.6 ± 0.56	50.6 ± 1.03	> 100	–	> 100	246 to 248
CC(=O)OC1CCC2(C)C(CCC3(C)C2CC(OC(=O)c2ccccc2O)C2C(C4(C)CCCC(C)(C)O4)CCC23C)C1(C)C [Compound 4b, 20(R)-Pananxadiol-3β-o-acetyl-12β-yl-2′-hydroxybenzoate]	–	39.4 ± 0.68	–	50.26 ± 0.39	48.75 ± 0.37	25.4 ± 0.77	36.12 ± 0.28	> 100	–	> 100	238 to 240
CC(C)(O)CCCC(C)(O)C1CCC2(C)C1C(OC(=O)c1ccccc1O)CC1C3(C)CCC(O)C(C)(C)C3CCC12C [Compound 5a, 20(R)-Dammarane-3β,20,25-triol-12β-yl-2′-hydroxybenzoate]	–	18.5 ± 0.23	–	60.5 ± 1.11	21.6 ± 1.08	22.5 ± 0.46	18.4 ± 0.47	> 100	–	> 100	258 to 260
CC(=O)Oc1ccccc1C(=O)OC1CC2C3(C)CCC(O)C(C)(C)C3CCC2(C)C2(C)CCC(C3(C)CCCC(C)(C)O3)C12 [Compound 5b, 20(R)-Pananxadiol-3β-hydroxy-12β-yl-2′-acetylbenzoate]	–	24.36 ± 0.15	–	26.24 ± 0.02	18.65 ± 0.13	14.1 ± 0.52	20.1 ± 0.74	> 100	–	> 100	226 to 228
CC(C)(CCCC(C)(O)C1CCC2(C)C1C(O)CC1C3(C)CCC(OC(=O)c4ccccc4O)C(C)(C)C3CCC12C)OC(=O)c1ccccc1O [Compound 6a, 20(R)-Dammarane-12β, 20-diol-3β, 25-di-yl-2′-hydroxybenzoate]	–	> 100	–	> 100	20.4 ± 0.36	19.4 ± 0.59	> 100	> 100	–	> 100	219 to 221
CC(=O)OC1CC2C3(C)CCC(OC(=O)c4ccccc4O)C(C)(C)C3CCC2(C)C2(C)CCC(C(C)(O)CCCC(C)(C)O)C12 [Compound 6b, 20(R)-Dammarane-20,25-diol-12β-o-acetyl-3β-yl-2′-hydroxybenzoate]	–	> 100	–	40.6 ± 1.05	48.3 ± 2.16	> 100	15.2 ± 0.41	> 100	–	> 100	278 to 280
CC(=O)Oc1ccccc1C(=O)OC1CCC2(C)C(CCC3(C)C2CC(OC(C)=O)C2C(C(C)(O)CCCC(C)(C)O)CCC23C)C1(C)C [Compound 7b, 20(R)-Dammarane-20,25-diol-12β-o-acetyl-3β-yl-2′-acetylbenzoate]	–	22.6 ± 1.02	–	18.4 ± 0.35	19.53 ± 0.19	28.4 ± 0.95	28.6 ± 0.65	> 100	–	> 100	268 to 270
CC(C)(CCCC(C)(O)C1CCC2(C)C1C(O)CC1C3(C)CCC(O)C(C)(C)C3CCC12C)OC(=O)c1ccccc1O [Compound 8a, 20(R)-Dammarane-3β,12β,20-triol-25-yl-2′-hydroxybenzoate]	–	50.7 ± 1.34	–	> 100	> 100	47.1 ± 0.59	> 100	> 100	–	> 100	223 to 225
CC(C)(O)CCCC(C)(O)C1CCC2(C)C1C(O)CC1C3(C)CCC(OC(=O)c4ccccc4O)C(C)(C)C3CCC12C [Compound 9a, 20(R)-Dammarane-12β,20,25-triol-3β-yl-2′-hydroxybenzoate]	–	50.44 ± 0.11	–	26.52 ± 0.26	37.3 ± 0.39	35.9 ± 0.41	11.5 ± 0.23	> 100	–	> 100	295 to 297
CC1(C)CCC[C@](C)(C2CC[C@]3(C)C2[C@H](OC(=O)c2ccccc2O)CC2[C@@]4(C)CC[C@H](OC(=O)c5ccccc5O)C(C)(C)C4CC[C@]23C)O1 (stereo partly drawn) [Compound 10a, 20(R)-Pananxadiol-3β,12β-di-yl-2′-hydroxybenzoate]	–	41.4 ± 0.48	–	> 100	> 100	29.5 ± 0.61	30.25 ± 0.02	> 100	–	> 100	232 to 234
CC1(C)CCC[C@](C)(C2CC[C@]3(C)C2[C@H](O)CC2[C@@]4(C)CC[C@H](OC(=O)c5ccccc5O)C(C)(C)C4CC[C@]23C)O1 (stereo partly drawn) [Compound 11a, 20(R)-Pananxadiol-12β-hydroxy-3β-yl-2′-hydroxybenzoate]	–	11.5 ± 1.47	–	41.9 ± 0.43	> 100	23.8 ± 1.36	26.5 ± 0.56	> 100	–	> 100	222 to 224
CC1(C)CCC[C@](C)(C2CC[C@]3(C)C2[C@H](OC(=O)c2ccccc2O)CC2[C@@]4(C)CC[C@H](O)C(C)(C)C4CC[C@]23C)O1 (stereo partly drawn) [Compound 12a, 20(R)-Pananxadiol-3β-hydroxy-12β-yl-2′-hydroxybenzoate]	–	60.1 ± 2.45	–	> 100	> 100	50.2 ± 0.94	> 100	> 100	–	> 100	248 to 250
CC1(C)CCC[C@](C)([C@H]2CC[C@]3(C)[C@@H]2[C@H](O)C[C@@H]2[C@@]4(C)CC[C@H](O)C(C)(C)[C@@H]4CC[C@]23C)O1 [PD, panaxadiol, reference compound]	> 100	62 ± 1.63	> 100	80.13 ± 0.36	72.15 ± 0.52	43.1 ± 1.05	73.4 ± 1.84	–	–	–	–
O=C(O)c1ccccc1O [Salicylic acid, reference compound]	> 100	> 100	> 100	> 100	> 100	> 100	83.2 ± 1.65	–	–	–	–
